These results are taken from patent publication US10745365B2, “Luminogenic and fluorogenic compounds and methods to detect molecules or conditions” (Promega Corporation, priority 2005, dated 2020).

The structures appear in SMILES notation.

What all share (assay type): biochemical
One data set deals with T1, beta-glucuronidase (GUS) (Homo sapiens, UniProt P08236).
T1 construct: purchased Sigma-Aldrich
T1 sequence (P08236 23-651): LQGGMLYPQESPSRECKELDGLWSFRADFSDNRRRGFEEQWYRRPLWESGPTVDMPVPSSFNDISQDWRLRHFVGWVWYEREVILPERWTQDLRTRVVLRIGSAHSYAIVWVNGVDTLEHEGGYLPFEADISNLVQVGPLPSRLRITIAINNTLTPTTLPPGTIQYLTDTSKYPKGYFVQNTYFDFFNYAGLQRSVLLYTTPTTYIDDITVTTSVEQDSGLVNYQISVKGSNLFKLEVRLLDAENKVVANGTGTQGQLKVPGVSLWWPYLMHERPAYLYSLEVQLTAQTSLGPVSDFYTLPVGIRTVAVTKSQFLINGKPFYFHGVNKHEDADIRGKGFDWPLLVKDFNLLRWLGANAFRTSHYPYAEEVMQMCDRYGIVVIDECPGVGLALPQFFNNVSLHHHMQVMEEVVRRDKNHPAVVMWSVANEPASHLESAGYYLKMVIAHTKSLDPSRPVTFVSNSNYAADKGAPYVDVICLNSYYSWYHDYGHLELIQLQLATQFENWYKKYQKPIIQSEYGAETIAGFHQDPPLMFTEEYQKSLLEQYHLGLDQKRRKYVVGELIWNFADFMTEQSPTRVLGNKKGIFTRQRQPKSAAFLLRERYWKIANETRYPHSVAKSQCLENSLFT
Nature of the data set: Beta-glucuronidase (GUS) assay. Here is the method:
The source of the human enzyme was Sigma-Aldrich. GUS was incubated with the substrate in 50 mM MES, pH 6.3, for 15 minutes.

In another data set the target is T2, GST M1-1 (Homo sapiens, UniProt P09488, K173N).
T2 construct: purchased Sigma
T2 sequence (P09488 1-218 K173N): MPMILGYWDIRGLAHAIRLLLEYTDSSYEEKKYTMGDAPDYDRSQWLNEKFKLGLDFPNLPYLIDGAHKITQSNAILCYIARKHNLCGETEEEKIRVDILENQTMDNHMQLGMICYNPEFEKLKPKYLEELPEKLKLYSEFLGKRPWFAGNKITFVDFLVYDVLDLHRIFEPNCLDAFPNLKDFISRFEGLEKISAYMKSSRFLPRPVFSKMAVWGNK
Put plainly: Luminescent GST assay with GST M1-1. Particulars: light generating reaction.

For data set [1], the system named is panel of recombinant human P450s. Put plainly: Two-step luminescent screen of luciferin derivatives against a panel of recombinant human P450s and HLM. The conditions noted are these: 50 μM substrate, panel of FIGS. 17-18. Here is the method:
P450s are Supersomes™ purchased from Discovery Labware (BD/Gentest). […] HLM is human liver microsomes.
1× substrate concentration: 50 μM.
The HLM reactions contained […] reaction, except where indicated otherwise. Control insect cell membranes were at 50 μg/50 μL.
For FIG. 20, the panel of human P450s was screened as described above.

Data set [2] has as its target T3, yeast alcohol dehydrogenase (Saccharomyces cerevisiae, UniProt P00330).
T3 construct: purchased Sigma Chem Co. A 7011
T3 sequence (P00330 1-348): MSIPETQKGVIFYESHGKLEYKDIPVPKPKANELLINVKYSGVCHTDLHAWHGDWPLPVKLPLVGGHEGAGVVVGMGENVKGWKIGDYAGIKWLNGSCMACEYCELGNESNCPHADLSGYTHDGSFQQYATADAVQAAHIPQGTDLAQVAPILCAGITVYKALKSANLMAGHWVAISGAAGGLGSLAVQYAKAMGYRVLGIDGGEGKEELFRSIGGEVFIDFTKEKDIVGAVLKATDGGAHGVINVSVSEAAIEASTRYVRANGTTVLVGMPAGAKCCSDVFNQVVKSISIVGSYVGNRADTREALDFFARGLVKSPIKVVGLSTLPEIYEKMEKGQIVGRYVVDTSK
Put plainly: Conversion of luciferol by yeast alcohol dehydrogenase. The conditions noted are these: room temperature. Here is the method:
A luciferin derivative, luciferol, was employed as a substrate for alcohol dehydrogenase (ADH). The derivative was tested in a two step format. For the first step, the derivative was added to a mixture with one of four ADHs. At different times after the reaction was initiated, a portion was removed and mixed with a luciferase reaction mixture. Reactions in which light production increased over time indicate that luciferol is a substrate for the ADH in that reaction.
Y ADH solution: 7500 units of yeast alcohol dehydrogenase (Sigma Chem Co. A 7011) was dissolved in 1 ml of 50 mM Bis Tris pH 6.5.
NAD+ solution: 66 mg of NAD+(Sigma Chem. Co. N 1511-250) was dissolved in 2 ml of Bis Tris, pH 6.5 and 8 ml of water.
Luciferol solution: approximately 4 mg of luciferol was dissolved in 1 ml of dimethylformamide (Aldrich 27,054-7).
AU reactions were kept at room temperature.

`Cc1cc(=O)oc2cc(O[C@@H]3O[C@H](C(=O)O)[C@@H](O)[C@H](O)[C@H]3O)ccc12` [4-methylumbelliferyl glucuronide]: the “signal-to-noise, fluorescence” value was 7.5 at beta-glucuronidase (GUS) ([GUS] 4.3 ng/ml); 15.6 at beta-glucuronidase (GUS) ([GUS] 8.7 ng/ml); 76.5 on beta-glucuronidase (GUS) ([GUS] 34.7 ng/ml); 164.6 on beta-glucuronidase (GUS) ([GUS] 69.4 ng/ml); 376.8 at beta-glucuronidase (GUS) ([GUS] 138.8 ng/ml); 861.4 on beta-glucuronidase (GUS) ([GUS] 277.5 ng/ml).
Regarding `COC(=O)[C@H]1CSC(c2ccc3cc(Oc4ccc(C(F)(F)F)cc4[N+](=O)[O-])ccc3n2)=N1` [GST-4, Methyl 6-(2-nitro-4-trifluoromethyl-phenoxy)quinolinyl-luciferin ester], the “GST preference” value on GST M1-1 was “better substrate for GST M1-1 in a light generating reaction than GST A1-1”.
Turning to `COc1ccc2nc(C3=NC(C(=O)O)CS3)ccc2c1` (stereo not drawn) [Quinolylluciferin 6-methyl ether], the “P450 enzyme activity / selectivity (words)” value in data set [1] is “preferred substrate for 1A2 and 4A1 1”; in data set [1] (listed as quinolyl luciferin-6-methyl ether), “enhanced selectivity for CYP4A11”.
Take `O=C(O)[C@H]1CSC(c2ccc3cc(OCOCc4ccccc4)ccc3n2)=N1` [6′benzyloxymethoxy-quinolylluciferin]: the “P450 enzyme activity / selectivity (words)” value in data set [1] was “selective for three members of the CYP3A subfamily, CYP3A4, CYP3A5 and CYP3A7”.
`OC[C@H]1CSC(c2nc3ccc(O)cc3s2)=N1` [luciferol]: the Light produced in data set [2] (Rx 7: 5 μl yeast ADH, 30 minutes after luciferol addition) was found to be 6.184; in data set [2] (Rx 7: 5 μl yeast ADH, 60 minutes after luciferol addition) it was 6.052; in data set [2] (Rx 7: 5 μl yeast ADH, 95 minutes after luciferol addition), 5.980; in data set [2] (Rx 7: 5 μl yeast ADH, 190 minutes after luciferol addition), 6.640; in data set [2] (Rx 7: 5 μl yeast ADH, 280 minutes after luciferol addition) it was 7.988; in data set [2] (Rx 8: 10 μl yeast ADH, 30 minutes after luciferol addition), 6.126. Besides, the Light produced is 5.468 in data set [2] (Rx 8: 10 μl yeast ADH, 60 minutes after luciferol addition); 5.552 in data set [2] (Rx 8: 10 μl yeast ADH, 95 minutes after luciferol addition); 6.198 in data set [2] (Rx 8: 10 μl yeast ADH, 190 minutes after luciferol addition); 6.903 in data set [2] (Rx 8: 10 μl yeast ADH, 280 minutes after luciferol addition); 5.406 in data set [2] (Rx 9: 20 μl yeast ADH, 30 minutes after luciferol addition); 5.608 in data set [2] (Rx 9: 20 μl yeast ADH, 60 minutes after luciferol addition). The Light produced in data set [2] (Rx 9: 20 μl yeast ADH, 95 minutes after luciferol addition) was determined as 6.301; in data set [2] (Rx 9: 20 μl yeast ADH, 190 minutes after luciferol addition), 5.825; in data set [2] (Rx 9: 20 μl yeast ADH, 280 minutes after luciferol addition), 6.734; in data set [2] (Rx 10: 20 μl yeast ADH, 10 μl luciferol, 30 minutes after luciferol addition) it was 9.672; in data set [2] (Rx 10: 20 μl yeast ADH, 10 μl luciferol, 60 minutes after luciferol addition) it was 9.531; in data set [2] (Rx 10: 20 μl yeast ADH, 10 μl luciferol, 95 minutes after luciferol addition) it was 10.00. The Light produced in data set [2] (Rx 10: 20 μl yeast ADH, 10 μl luciferol, 190 minutes after luciferol addition) came out at 10.36; in data set [2] (Rx 10: 20 μl yeast ADH, 10 μl luciferol, 280 minutes after luciferol addition) it was 11.71.
